# Results as given in the supplement of paper PMC11061612.
# Columns and labels:
# Test in all cases: Bliss excess, mean over the matrix (fraction); higher = more synergy
# [1] = tested on: C3A (Hepatocellular Carcinoma)
# Outline: (§1)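 Bliss excess equals the observed combination effect minus the expected value EA + EB − EA·EB, where EA and EB are the effects of each agent alone. Combination Emax is the second-highest inhibition within the matrix. Inhibition was scaled from CellTiter-Glo 2.0 luminescence, with 0 set by vehicle wells and 1 by blank wells, after 72 hours of two-drug dosing of cells plated in 1536-well plates.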
# NCI-H2369 (Mesothelioma) = tested on: NCI-H2369 (Mesothelioma)
# Outline: as §1
# SK-N-FI (Neuroblastoma) = tested on: SK-N-FI (Neuroblastoma)
# Outline: as §1
# ES7 (Ewing's Sarcoma) = tested on: ES7 (Ewing's Sarcoma)
# Outline: as §1
# [2] = tested on: SNU-C5 (Colorectal Carcinoma)
# Outline: as §1
# [3] = tested on: DMS-273 (Small Cell Lung Carcinoma)
# Outline: as §1
# [4] = tested on: TE-5 (Esophageal Squamous Cell Carcinoma)
# Outline: as §1
# [5] = tested on: CFPAC-1 (Pancreatic Carcinoma)
# Outline: as §1
# CAL-78 (Chondrosarcoma) = tested on: CAL-78 (Chondrosarcoma)
# Outline: as §1
# [6] = tested on: KARPAS-1106P (B-Cell Non-Hodgkin's Lymphoma)
# Outline: as §1
# [7] = tested on: SW756 (Cervical Carcinoma)
# Outline: as §1
# [8] = tested on: SUIT-2 (Pancreatic Carcinoma)
# Outline: as §1
# SN12C (Kidney Carcinoma) = tested on: SN12C (Kidney Carcinoma)
# Outline: as §1
# NCI-H2595 (Mesothelioma) = tested on: NCI-H2595 (Mesothelioma)
# Outline: as §1
# [9] = tested on: 697 (B-Lymphoblastic Leukemia)
# Outline: as §1
# [10] = tested on: TGBC24TKB (Biliary Tract Carcinoma)
# Outline: as §1
# DSH1 (Bladder Carcinoma) = tested on: DSH1 (Bladder Carcinoma)
# Outline: as §1
# [11] = tested on: OCI-AML2 (Acute Myeloid Leukemia)
# Outline: as §1
# [12] = tested on: KM-H2 (Hodgkin's Lymphoma)
# Outline: as §1
# [13] = tested on: MDA-MB-157 (Breast Carcinoma)
# Outline: as §1
SMILES,Bliss excess [1],Bliss excess (NCI-H2369 (Mesothelioma)),Bliss excess (SK-N-FI (Neuroblastoma)),Bliss excess (ES7 (Ewing's Sarcoma)),Bliss excess [2],Bliss excess [3],Bliss excess [4],Bliss excess [5],Bliss excess (CAL-78 (Chondrosarcoma)),Bliss excess [6],Bliss excess [7],Bliss excess [8],Bliss excess (SN12C (Kidney Carcinoma)),Bliss excess (NCI-H2595 (Mesothelioma)),Bliss excess [9],Bliss excess [10],Bliss excess (DSH1 (Bladder Carcinoma)),Bliss excess [11],Bliss excess [12],Bliss excess [13]
"CN(C)CCCOc1ccc(-c2ccc3ncc4c(c3c2)n(C2CCOCC2)c(=O)n4C)cn1 [AZD0156] + C=CCn1c(=O)c2cnc(Nc3ccc(N4CCN(C)CC4)cc3)nc2n1-c1cccc(C(C)(C)O)n1 [AZD1775] (first compound max 1 µM, partner max 1 µM)",-0.0866,-0.0266,-0.0308,-0.0153,-0.0296,-0.0142,-0.0388,-0.0645,-0.0854,-0.0384,-0.0386,0.0011,-0.0717,-0.062,0.0183,-0.0224,0.0236,-0.0258,0.0303,-0.0177
"C[C@@H](c1ccc2nccn2c1)n1nnc2ncc(-c3cnn(C)c3)nc21 [Savolitinib] + CC1(C)CCC(CN2CCN(c3ccc(C(=O)NS(=O)(=O)c4ccc(NCC5CCOCC5)c([N+](=O)[O-])c4)c(Oc4cnc5[nH]ccc5c4)c3)CC2)=C(c2ccc(Cl)cc2)C1 [Venetoclax] (first compound max 1 µM, 7x7, partner max 1 µM)",-0.0545,-0.058,-0.0537,-0.0354,-0.0596,-0.0398,-0.0557,-0.0514,-0.0872,-0.0157,-0.0923,-0.0737,-0.0152,0.006,-0.114,-0.0283,0,-0.0246,0,-0.0411
"Cc1c2c(nn1C)CSCc1cc(n(C)n1)CSc1cc(c3ccccc3c1)OCCCc1c(C(=O)O)n(C)c3c-2c(Cl)ccc13 [AZD5991] + CCN(CCO)CCCOc1ccc2c(Nc3cc(CC(=O)Nc4cccc(F)c4)[nH]n3)ncnc2c1 [AZD2811] (first compound max 1 µM, 7x7, partner max 1 µM)",0.0494,-0.0156,0.0054,0.0267,0.0247,-0.0949,-0.0313,-0.0148,-0.0228,0.0744,0.0141,0.0126,0.0191,0.0141,-0.0039,0.0122,0.0492,0.126,0.0654,0.078
"NC1(C(=O)N[C@@H](CCO)c2ccc(Cl)cc2)CCN(c2ncnc3[nH]ccc23)CC1 [Capivasertib] + CC(=O)c1c(C)c2cnc(Nc3ccc(N4CCNCC4)cn3)nc2n(C2CCCC2)c1=O [Palbociclib] (first compound max 10 µM, 7x7, partner max 10 µM)",0.0164,0.0133,-0.0581,0.0092,-0.0112,-0.0309,0.0142,-0.0758,-0.0424,-0.0168,-0.0499,-0.0047,-0.0265,-0.0248,-0.114,-0.0216,-0.0395,0.0134,0.0484,0.0439
"NC1(C(=O)N[C@@H](CCO)c2ccc(Cl)cc2)CCN(c2ncnc3[nH]ccc23)CC1 [Capivasertib] + COc1nnc2ccc(N3CCC(c4ccc(OCCN5CCN(C)C(=O)[C@H]5C)cc4)CC3)nn12 [AZD5153] (first compound max 10 µM, 7x7, partner max 1 µM)",0.0515,0.004,-0.0019,0.104,0.0669,0.0231,0.0361,0.0332,0.0536,0.0728,0.0197,0.0367,-0.0155,-0.0072,-0.065,0.0597,-0.0394,0.0068,0.0144,0.0204
"COc1nnc2ccc(N3CCC(c4ccc(OCCN5CCN(C)C(=O)[C@H]5C)cc4)CC3)nn12 [AZD5153] + Cn1cnc2c(F)c(Nc3ccc(Br)cc3Cl)c(C(=O)NOCCO)cc21 [Selumetinib] (first compound max 1 µM, 7x7, partner max 10 µM)",-0.0272,-0.048,-0.0386,-0.0502,-0.0116,-0.0661,0.0184,-0.0149,-0.0315,0.013,0.0167,0.0227,0.0158,-0.0604,-0.0389,0.158,-0.0458,0.0311,-0.0839,0.0292
"CN(C)CCCOc1ccc(-c2ccc3ncc4c(c3c2)n(C2CCOCC2)c(=O)n4C)cn1 [AZD0156] + O=C(c1cc(Cc2n[nH]c(=O)c3ccccc23)ccc1F)N1CCN(C(=O)C2CC2)CC1 [Olaparib] (first compound max 3 µM, partner max 3 µM)",-0.0171,-0.0455,-0.0123,0.291,0.0621,0.155,-0.0241,-0.0026,0.0042,0.0471,-0.0192,0.028,-0.0357,-0.0288,0.186,0.0104,0.0328,0.171,0.0575,-0.0302
"Cc1c2c(nn1C)CSCc1cc(n(C)n1)CSc1cc(c3ccccc3c1)OCCCc1c(C(=O)O)n(C)c3c-2c(Cl)ccc13 [AZD5991] + C1CN(CCC1(C(=O)N[C@@H](CCO)C2=CC=C(C=C2)Cl)N)C3=NC=NC4=C3C=CN4 [Capivasertib] (first compound max 1 µM, 7x7, partner max 3 µM)",-0.0318,-0.012,0.0211,0.112,0.0007,-0.0524,0.0141,0.0021,0.0091,0.0188,-0.023,-0.0304,-0.0239,0.0093,-0.034,0.0066,0.001,0.0385,-0.0052,0.0573
